Read-outs that look alike come from different tables or passages of the source.
Legend:
MCF7 cells = assay: Antiproliferative activity, MTT test; format: cell-based; conditions: Homo sapiens, MTT assay after 72 h exposure
Protocol: A series of synthesized indoline-5-sulfonamides was tested on the MCF7 cancer cell line under normoxia and hypoxia using the MTT test.
The MDR subline K562/4 [77] (kind gift of Dr. Alexander Shtil, Blokhin N.N. National Medical Research Center of Oncology) was obtained by stepwise selection of K562 cells for survival under continuous exposure to Dox. This subline expresses the MDR1 gene and functional P-gp and is characterized by a high resistance index for Dox. […] Cells in the logarithmic phase of growth were used in the experiments. The growth inhibitory activity of compounds was assessed by the MTT test based on the metabolism of the MTT reagent (3-[4,5-dimethylthiazol-2-yl]-2,5-diphenyltetrazolium bromide) (Applichem) in living cells, with modifications as described previously in [49]. Compounds at different concentrations in 100 μL of the appropriate medium were added, and the cells were grown for 72 h. The hypoxia (1% O2) conditions were simulated in Binder multigas incubator, as described in [49]. After incubation with compounds, the medium was removed, the MTT reagent that was dissolved in the medium was added to the final concentration of 0.2 mg/mL to each well, and the incubation was performed for 2 h. Then the cell supernatants were removed, and purple formazan crystals were dissolved in 100% DMSO (350 μL per well). Culture plates were gently shaken, and the absorbance was measured at 571 nm with a reference wavelength of 630 nm on a MultiScan reader (ThermoFisher, Waltham, MA, USA). The viability of the cells was expressed as a percentage of the control. Dose-response curves were analyzed by regression analysis using sigmoid curves (Log(concentration) vs. normalized absorbance).
All results were reported as means ± SD. One-way analysis of variance was used for the analysis of data. Differences were defined as significant at p < 0.05. GraphPad Prism7 (GraphPad Software, San Diego, CA, USA) was used for the determination of the half-maximal inhibitory concentration (IC50) values.

hCA II = target: T1, hCA II (Homo sapiens, UniProt P00918); assay: CA inhibition, stopped-flow CO2 hydration assay; format: biochemical; conditions: stopped-flow technique; mean from three assays
T1 construct: made in house
Protocol: (§1) The CO2 hydration activity of the four hCA isoforms was monitored using an Applied Photophysics stopped-flow instrument. Phenol red (at a concentration of 0.2 mM) was used as an indicator, working at the absorbance maximum of 557 nm, with 10 mM HEPES (pH 7.4) as a buffer, and 20 mM NaClO4 (for maintaining constant the ionic strength), following the initial rates of the CA-catalyzed CO2 hydration reaction for a period of 10–100 s. To determine the kinetic parameters by Lineweaver-Burk plots and the inhibition constants, a concentration of CO2 between 1.7 to 17 mM was used. At least six measurements of the original 5–10% reaction were used to assess the initial velocity for each inhibitor. The uncatalyzed rates were determined and detracted from the total observed rates. Stock inhibitor solutions (10–100 mM) were prepared in distilled-deionized water, and dilutions up to 0.1 nM were done with the buffer test. […] The inhibition constants were obtained by non-linear least-squares methods using PRISM 6 and the Cheng-Prusoff equation, as reported earlier, and represent the mean from at least three different determinations.

hCA XII = target: T2, hCA XII (Homo sapiens, UniProt O43570); assay: CA inhibition, stopped-flow CO2 hydration assay; format: biochemical; conditions: stopped-flow technique; mean from three assays
T2 construct: made in house
T2 sequence (O43570 25-354): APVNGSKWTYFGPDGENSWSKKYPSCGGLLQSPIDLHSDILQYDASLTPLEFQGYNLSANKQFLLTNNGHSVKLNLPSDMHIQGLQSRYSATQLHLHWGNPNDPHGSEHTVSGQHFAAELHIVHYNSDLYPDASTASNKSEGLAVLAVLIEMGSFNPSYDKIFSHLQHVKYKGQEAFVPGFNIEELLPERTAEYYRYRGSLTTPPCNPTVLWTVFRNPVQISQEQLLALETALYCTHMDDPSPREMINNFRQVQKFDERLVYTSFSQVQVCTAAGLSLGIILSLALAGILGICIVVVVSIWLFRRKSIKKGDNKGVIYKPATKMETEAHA
Protocol: as §1

hCA IX = target: T3, hCA IX (Homo sapiens, UniProt Q16790); assay: CA inhibition, stopped-flow CO2 hydration assay; format: biochemical; conditions: stopped-flow technique; mean from three assays
T3 construct: made in house
Protocol: as §1

hCA I = target: T4, hCA I (Homo sapiens, UniProt P00915); assay: CA inhibition, stopped-flow CO2 hydration assay; format: biochemical; conditions: stopped-flow technique; mean from three assays
T4 construct: made in house
T4 sequence (P00915 whole entry): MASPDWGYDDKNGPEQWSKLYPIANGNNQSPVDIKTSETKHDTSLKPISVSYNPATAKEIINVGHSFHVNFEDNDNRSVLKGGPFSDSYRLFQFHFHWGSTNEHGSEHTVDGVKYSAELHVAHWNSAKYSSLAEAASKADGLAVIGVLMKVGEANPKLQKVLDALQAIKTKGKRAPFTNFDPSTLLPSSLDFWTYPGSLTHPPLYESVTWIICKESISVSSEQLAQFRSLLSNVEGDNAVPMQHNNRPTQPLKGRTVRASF
Protocol: as §1

[1] = hypoxia (1% O2), read-out: IC50 against MCF7 Cells, Hypoxia
[2] = normoxia, read-out: IC50 against MCF7 Cells, Normoxia

Row | IC50 (MCF7 cells; [1]) [nM] | IC50 (MCF7 cells; [2]) [nM] | Ki (hCA II) [nM] | Ki (hCA XII) [nM] | Ki (hCA IX) [nM] | Ki (hCA I) [nM] | melting point [°C] | Structure (SMILES)
1 | > 50000 | > 50000 |  |  |  |  |  | NS(=O)(=O)c1ccc2c(c1)CCC2NC(=O)c1c(F)c(F)c(F)c(F)c1F (centres unmarked) [Compound 3, reference compound]
2 | 36900 ± 3500 | > 50000 | 5.4 | 258 | > 10000 | 79 | > 250 | NS(=O)(=O)c1ccc2c(c1)CCN2C(=O)c1ccccc1 [Compound 4a, 1-Benzoylindoline-5-sulfonamide]
3 | 32700 ± 2800 | 40600 ± 3800 | 9.5 | > 10000 | 2250 | 88.3 | > 250 | NS(=O)(=O)c1ccc2c(c1)CCN2C(=O)c1ccc(F)cc1 [Compound 4c, 1-(4-Fluorobenzoyl)indoline-5-sulfonamide]
4 | 35900 ± 3400 | > 50000 | 9.1 | 41.3 | 1330 | 268 | 244 to 246 | NS(=O)(=O)c1ccc2c(c1)CCN2C(=O)c1c(F)cccc1F [Compound 4d, 1-(2,6-Difluorobenzoyl)indoline-5-sulfonamide]
5 | 24200 ± 2100 | 36500 ± 3300 | 66.2 | 57 | > 10000 | 242 | > 250 | NS(=O)(=O)c1ccc2c(c1)CCN2C(=O)c1ccc(Cl)cc1 [Compound 4g, 1-(4-Chlorobenzoyl)indoline-5-sulfonamide]
6 | 48700 ± 4500 | 35200 ± 3500 | 54 | 56 | > 10000 | 350 | > 250 | NS(=O)(=O)c1ccc2c(c1)CCN2C(=O)c1ccc(Cl)c(Cl)c1 [Compound 4h, 1-(3,4-Dichlorobenzoyl)indoline-5-sulfonamide]
7 | 43600 ± 4000 | > 50000 | 36.1 | 93.9 | > 10000 | 220 | 247 to 249 | Cc1cccc(C(=O)N2CCc3cc(S(N)(=O)=O)ccc32)c1 [Compound 4i, 1-(3-Methylbenzoyl)indoline-5-sulfonamide]
8 | > 50000 | 46200 ± 3600 | 9.2 | 110 | > 10000 | 67.7 | 225 to 227 | COc1cccc(C(=O)N2CCc3cc(S(N)(=O)=O)ccc32)c1 [Compound 4j, 1-(3-Methoxybenzoyl)indoline-5-sulfonamide]
9 | > 50000 | > 50000 | 9.3 | > 10000 | 173 | 77.7 | 240 to 242 | COc1ccc(C(=O)N2CCc3cc(S(N)(=O)=O)ccc32)cc1 [Compound 4k, 1-(4-Methoxybenzoyl)indoline-5-sulfonamide]
10 | > 50000 | 37000 ± 3000 | 4 | 113 | 203 | 71.5 | 249 to 251 | COc1ccc(C(=O)N2CCc3cc(S(N)(=O)=O)ccc32)c(OC)c1 [Compound 4l, 1-(2,4-Dimethoxybenzoyl)indoline-5-sulfonamide]
11 | > 50000 | 18400 ± 1600 | 9.3 | 91 | 1990 | 71.4 | 245 to 247 | CSc1ccc(C(=O)N2CCc3cc(S(N)(=O)=O)ccc32)cc1 [Compound 4n, 1-(4-(Methylthio)benzoyl)indoline-5-sulfonamide]
12 | 39500 ± 3400 | 43700 ± 3700 | 4.5 | 120 | > 10000 | 83.4 | 238 to 240 | NS(=O)(=O)c1ccc2c(c1)CCN2C(=O)c1ccccc1[N+](=O)[O-] [Compound 4o, 1-(2-Nitrobenzoyl)indoline-5-sulfonamide]
13 | 39900 ± 3500 | 48800 ± 4400 | 42.2 | 198 | 2110 | 60.5 | 247 to 249 | NS(=O)(=O)c1ccc2c(c1)CCN2C(=O)c1ccc([N+](=O)[O-])cc1 [Compound 4p, 1-(4-Nitrobenzoyl)indoline-5-sulfonamide]
14 | > 50000 | > 50000 | 12.5 | > 10000 | 2390 | 64 | > 250 | NS(=O)(=O)c1ccc2c(c1)CCN2C(=O)c1ccncc1 [Compound 4q, 1-Isonicotinoylindoline-5-sulfonamide]
15 | 39100 ± 3900 | 47700 ± 3800 | 5 | 147 | 177 | 42.2 | > 250 | NS(=O)(=O)c1ccc2c(c1)CCN2C(=O)c1cccs1 [Compound 4r, 1-(Thiophene-2-carbonyl)indoline-5-sulfonamide]
16 | > 50000 | > 50000 | 7.1 | 88.1 | 133 | 60.9 | 233 to 235 | NS(=O)(=O)c1ccc2c(c1)CCN2C(=O)C1CCCC1 [Compound 4s, 1-(Cyclopentanecarbonyl)indoline-5-sulfonamide]
17 | 36000 ± 3300 | 38000 ± 3500 | 3.5 | > 10000 | 177 | 51.6 | 184 to 186 | NS(=O)(=O)c1ccc2c(c1)CCN2C(=O)CC1CCCC1 [Compound 4t, 1-(2-Cyclopentylacetyl)indoline-5-sulfonamide]
18 | 39200 ± 3400 | 37100 ± 3500 | 1.8 | > 10000 | 223 | 67 | > 250 | NS(=O)(=O)c1ccc2c(c1)CCN2C(=O)C1CCCCC1 [Compound 4u, 1-(Cyclohexanecarbonyl)indoline-5-sulfonamide]
19 | 34800 ± 3200 | 23600 ± 2000 | 3 | > 10000 | > 10000 | 41 | 144 to 146 | NS(=O)(=O)c1ccc2c(c1)CCN2Cc1ccccc1 [Compound 10, 1-Benzylindoline-5-sulfonamide]
